Values joined by “and” are separate entries in the source; they are usually repeats but may differ in a detail not shown here. Equal values may be shown once. Read-outs that look alike come from different tables or passages of the source. Peptide text beside a SMILES is read from it.
Key:
[1] = tested on: second representative of the glnA motif from a marine metagenomic sequence; assay: In-line probing of a second glnA motif representative; type: binding; settings: for binding by the RNA: at 1 mM (data not shown)
Source text: (§1) RNAs were 5′-^32P radiolabeled and subjected to in-line probing analyses, which have been described in detail previously (Soukup et al. Relationship between internucleotide linkage geometry and the stability of RNA. RNA 1999; 5:1308-1325; Regulski E E, Breaker R R. In-line probing analysis of riboswitches. Methods Mol Biol 2008; 419:53-67). Briefly, 5′ triphosphates were removed from the RNAs using alkaline phosphatase (Roche) according to the manufacturer's protocol. The dephosphorylated RNAs were 5′-^32P radiolabeled by incubation with [γ-^32P] ATP and T4 polynucleotide kinase (New England Biolabs), following the manufacturer's directions. Denaturing PAGE (6%) was subsequently employed to purify the RNAs as described above. The radiolabeled RNAs were then incubated at 23° C. in a solution containing 75 mM Tris-HCl (pH 8.3 at 23° C.), 20 mM MgCl2, 100 mM KCl, and various different potential ligands (see results section for full list) at concentrations ranging from 1 μM to 10 mM in most cases. When RNAs were subjected to in-line probing with 100 mM L-glutamate, the amino acid replaced the Tris-HCl as the buffering agent. HCl and NaOH were used to adjust this modified in-line probing solution to pH 8.3.
(§2) After incubating for approximately 40 hours, the products of in-line probing reactions were separated by denaturing 10% PAGE. The gels were then dried and imaged using a Storm 820 PhosphorImager (GE Healthcare). The relative intensities of the various degradation products were quantified using SAFA v1.1 software (Das et al. SAFA: Semi-automated footprinting analysis software for high-throughput quantification of nucleic acid footprinting experiments. RNA 2005; 11:344-354). The bands which modulated the most intensely were used to make KD estimates.

67 glnA RNA = assay: In-line probing of 67 glnA RNA; type: binding, Synechococcus elongatus; settings: for binding by the 67 glnA aptamer: concentrations as high as 10 mM
Source text: as §1
as §2, with “estimates. In the cases where the concentrations of ligand used were insufficiently high to saturate RNA binding, the data was normalized to KD values that best explained the data assuming a standard one-to-one interaction.” for “estimates.”

83 DP RNA = assay: In-line probing of 83 DP RNA (Downstream-peptide motif); type: binding, Synechococcus sp. CC9902; settings: for binding by the Downstream-peptide glutamine aptamer: stated in the discussion for both aptamer subtypes, concentration not given at place; for Kd: 1-to-1 interaction, read-out: apparent KD
Source text: as §1, §2

construct M3 = assay: In-line probing of 67 glnA construct M3 (compensatory mutations); type: binding, Synechococcus elongatus
Protocol: (§3) Pairs of oligonucleotides were used in primer extension reactions to make full-length double-stranded DNA (dsDNA) products to use as templates for in vitro transcription reactions. Primers 1 and 2 were used for 67 glnA, 2 and 3 for Ml, 4 and 5 for M3, 1 and 6 for M2, 1 and 7 for M4, 8 and 9 for 83 DP, 8 and 10 for M5, and 8 and 11 for M6. A 100 μl solution containing 300 pmoles of each primer, 50 mM Tris-HCl (pH 8.3 at 23° C.), 75 mM KCl, 3 mM MgCl2, […] dithiothreitol (DTT), 1 mM of each of the four deoxynucleoside triphosphates (dNTPs), and 8 U/μl of SuperScript II Reverse Transcriptase (Invitrogen) was heated for 2 hours at 42° C. The full length dsDNA was then purified using the QIAquick PCR Purification Kit (QIAgen) following the manufacturer's protocol and was eluted in a volume of 50 […]
as §2, with “The gels were then dried and imaged using a Storm 820 PhosphorImager (GE Healthcare).” left out, “The bands which modulated the most intensely were used to make KD estimates.” left out

[2] = tested on: 67 glnA mutant RNA construct M1; assay: In-line probing of 67 glnA mutant M1 (disruptive mutations); type: binding, Synechococcus elongatus; settings: two disruptive mutations in P2 stem
Protocol: as §3
as §2, with “The gels were then dried and imaged using a Storm 820 PhosphorImager (GE Healthcare).” left out, “The bands which modulated the most intensely were used to make KD estimates.” left out

construct M4 = assay: In-line probing of 67 glnA construct M4 (compensatory mutations); type: binding, Synechococcus elongatus
Protocol: as §3
as §2, with “The gels were then dried and imaged using a Storm 820 PhosphorImager (GE Healthcare).” left out, “The bands which modulated the most intensely were used to make KD estimates.” left out

[3] = tested on: 67 glnA mutant RNA construct M2; assay: In-line probing of 67 glnA mutant M2 (disruptive mutations); type: binding, Synechococcus elongatus; settings: two disruptive mutations in P3 stem
Protocol: as §3
as §2, with “The gels were then dried and imaged using a Storm 820 PhosphorImager (GE Healthcare).” left out, “The bands which modulated the most intensely were used to make KD estimates.” left out

M5 RNA = assay: In-line probing of mutant 83 DP RNA M5 (disrupted pseudoknot); type: binding, Synechococcus sp. CC9902; settings: two disruptive mutations in the pseudoknot
Protocol: as §3
as §2, with “The gels were then dried and imaged using a Storm 820 PhosphorImager (GE Healthcare).” left out, “The bands which modulated the most intensely were used to make KD estimates.” left out

pfl RNA [4] = assay: In-line probing experiments with a pfl RNA; type: binding, Clostridium acetobutylicum ATCC 824; settings: 1 mM except where noted
Protocol: Some riboswitches were tested for metabolite binding using in-line probing experiments (Regulski et al. In-line probing analysis of riboswitches. Methods Mol Biol 2008, 419:53-67). RNAs tested were transcribed in vitro from a DNA template using RNA polymerase T7. In the experiments described below, no modulation in gel patterns was observed that would indicate metabolite binding.
Experiments were performed with the following RNA encoded by Clostridium acetobutylicum ATCC 824:
The following metabolites were tested at 1 mM except where noted: AICAR riboside, AICAR ribotide, SAICAR, GAR, pyruvate, guanine (100 μM), hypoxanthine (40 μM), IMP, formate, THF, dihydrofolate, 5-formyl-THF, 10-formyl-THF, methylene-THF, methenyl-THF, methyl-THF, SAICAR, glutamate, glutamine, glycine, serine, aspartate, dUMP, homocysteine, SAM, AICA, CAIR, CoA, acetyl-CoA, alanine, NAD, NADH, NADP, NADPH, dCMP, histidine, D-ribose 5′-phosphate, adenine, D-ribose, NADH, SAICAR, CAIR, glycine, PRPR, ppGpp, cAMP, HMP, ATP (600 μM), CTP (600 μM), GTP (600 μM), UTP (600 μM), AMP, ADP, GMP, GDP, UMP, UDP, uridine, and tryptophan.

pfl RNA [5] = assay: RNase protection assay (RNase T1 and V1) with pfl RNA; type: binding, Clostridium acetobutylicum ATCC 824; settings: shorter incubation time than in-line probing
Protocol: Due to the instability of PRPP, it was also tested in an RNase protection assay with RNase T1 and V1. The use of an RNase permits a shorter incubation time than used for in-line probing.

SK209-52 RNA = assay: In-line probing of SK209-52 RNA (SAM/SAH motif); type: binding, Roseobacter sp. SK209-2-6; settings: SAM samples may contain breakdown product SAH, read-out: apparent dissociation constant (KD)
Protocol: RNA constructs were prepared by in vitro RNA transcription RNA using T7 RNA polymerase and the appropriate DNA templates that were created by overlap extension of synthetic DNA oligonucleotides using SuperScript II reverse transcriptase (Invitrogen) as instructed by the manufacturer. RNA transcripts were purified using denaturing (8 M urea) polyacrylamide gel electrophoresis (PAGE). RNAs were eluted from the gel, dephosphorylated using alkaline phosphatase and 5′ radiolabeled with [γ-32P] using methods reported previously (Wang et al. Riboswitches that sense S-adenosylhomocysteine and activate genes involved in coenzyme recycling. Mol Cell 2008, 29:691-702). 5′ 32P-labeled fragments resulting from in-line probing reactions were subjected to denaturing PAGE, imaged and analyzed as previously described (Wang et al. Riboswitches that sense S-adenosylhomocysteine and activate genes involved in coenzyme recycling. Mol Cell 2008, 29:691-702).

[6] = tested on: SAM-Chlorobi RNA (four RNAs with different 3′ ends); assay: In-line probing experiments with SAM-Chlorobi RNA; type: binding, Chlorobium tepidum TLS; settings: 1 mM
Protocol: Some riboswitches were tested for metabolite binding using in-line probing experiments (Regulski et al. In-line probing analysis of riboswitches. Methods Mol Biol 2008, 419:53-67). RNAs tested were transcribed in vitro from a DNA template using RNA polymerase T7. In the experiments described below, no modulation in gel patterns was observed that would indicate metabolite binding. […] Experiments were performed on the following four RNAs, encoded by Chlorobium tepidum TLS, which have different 3′ ends: Lowercase letters represent G nucleotides that were added to improve transcription yield. The following metabolites were tested at 1 mM: SAM, SAH, methionine, and homocysteine.

With O=C(O)CCC(=O)C(=O)O [2-oxoglutarate] the “binding by the RNA” value [1] was “rejected”.

For NC(=O)CCCC(=O)O [5-amino-5-oxopentanoic acid], the “binding by the 67 glnA aptamer” value (67 glnA RNA; in-line probing) was “rejected” and the “binding by the Downstream-peptide glutamine aptamer” value (83 DP RNA) was “loss of binding”.

With CC(=O)CC[C@H](N)C(=O)O [(S)-2-amino-5-oxo-hexanoic acid] the “binding by the 67 glnA aptamer” value (67 glnA RNA; in-line probing) was “rejected” and the “binding by the Downstream-peptide glutamine aptamer” value (83 DP RNA) was “reject”.

In the case of C[C@H](N)C(=O)N[C@@H](CCC(N)=O)C(=O)O [Ala-Gln] (H-Ala-Gln-OH), the “binding by the 67 glnA aptamer” value (67 glnA RNA; in-line probing) is reported as “rejected” and the “binding by the Downstream-peptide glutamine aptamer” value (83 DP RNA) is reported as “neither Ala-Gln nor L-glutamine t-butyl ester are bound”.

In the case of NC(=O)CC[C@@H](N)C(=O)O [D-glutamine], the “affinity relative to its more common isomer (L-glutamine)” value (67 glnA RNA; in-line probing) is reported as “approximately 1/10”, the “fold tighter binding of L-glutamine compared to D-glutamine” value (67 glnA RNA; in-line probing) is reported as 10 fold and the “binding to 83 DP RNA” value (83 DP RNA; concentrations up to 10 mM) is reported as “no binding was detected”.

With NC(=O)C[C@H](N)C(=O)O [L-asparagine] the “binding by the 67 glnA aptamer” value (67 glnA RNA; in-line probing) was “rejected”.

With CC(C)(C)OC(=O)[C@@H](N)CCC(N)=O [L-glutamine t-butyl ester] the “binding by the 67 glnA aptamer” value (67 glnA RNA; in-line probing) was “rejected” and the “binding by the Downstream-peptide glutamine aptamer” value (83 DP RNA) was “neither Ala-Gln nor L-glutamine t-butyl ester are bound”.

With NC(=O)CC[C@H](N)C(=O)O [L-glutamine] the “structural modulation in response to glutamine addition” value (construct M3) was “regain structural modulation”, the “structural modulation upon addition of glutamine” value [2] was “no modulation” and the “structural modulation in response to glutamine addition” value (construct M4) was “regain structural modulation”. For the same compound, the “pattern of RNA cleavage products” value (67 glnA RNA; 1 mM glutamine added to in-line probing assay containing 100 mM glutamate) was “produced the pattern of RNA cleavage products expected for glutamine binding”, the Kd (67 glnA RNA; curve expected for a 1-to-1 RNA-ligand interaction (FIG. 30C), read-out: KD) was 575 µM and the Kd (67 glnA RNA; in-line probing, one-to-one interaction, read-out: apparent dissociation constant (KD)) was about 575 µM. The “structural modulation upon addition of glutamine” value [3] was “no modulation”, the Kd (83 DP RNA; listed as glutamine) was about 5000 µM and the Kd (83 DP RNA) was 5000 µM. For the same compound, the Kd [1] was about 150 µM and the binding to glutamine (M5 RNA) was “does not bind”.

In the case of NC(=O)CCC[C@H](N)C(=O)O [L-homoglutamine], the “binding by the 67 glnA aptamer” value (67 glnA RNA; in-line probing) is reported as “rejected” and the “binding by the Downstream-peptide glutamine aptamer” value (83 DP RNA) is reported as “reject”.

With NCCCC[C@H](N)C(=O)O [L-lysine] the “binding by the RNA” value [1] was “rejected”.

For CCNC(=O)CC[C@H](N)C(=O)O [L-theanine], the “binding by the 67 glnA aptamer” value (67 glnA RNA; in-line probing) was “rejected”.

For NC(=O)CC[C@H](N)CC(=O)O [L-β-homo glutamine], the “binding by the 67 glnA aptamer” value (67 glnA RNA; in-line probing) was “rejected”.

CC(=O)OC[C@H](N)C(=O)O [O-acetyl-L-serine] was tested, and the “binding by the 67 glnA aptamer” value (67 glnA RNA; in-line probing) was “rejected”.

In the case of O=P(O)(O)OC[C@H]1O[C@H](OP(=O)(O)OP(=O)(O)O)[C@H](O)[C@@H]1O [PRPP], the “modulation in gel patterns that would indicate metabolite binding” value (pfl RNA [4]) is reported as “did not reveal evidence of binding” and the “change in degradation patterns” value (pfl RNA [5]) is reported as “no change in degradation patterns was detected”.

With Nc1ncnc2c1ncn2[C@@H]1O[C@H](CSCC[C@H](N)C(=O)O)[C@@H](O)[C@H]1O [SAH, S-adenosylhomocysteine] the Kd (SK209-52 RNA) was about 4.3 µM and the “modulation in gel patterns that would indicate metabolite binding” value [6] was “did not reveal binding”.

C[S+](CC[C@H](N)C(=O)[O-])C[C@H]1O[C@@H](n2cnc3c(N)ncnc32)[C@H](O)[C@@H]1O (stereo partly shown) [SAM, S-adenosylmethionine] was tested, and the Kd (SK209-52 RNA) was 8.6 µM and ~8.6 µM and the “modulation in gel patterns that would indicate metabolite binding” value [6] was “did not reveal binding”.

With N=C(N)NCCCCN [agmatine] the “binding by the RNA” value [1] was “rejected”.

N[C@@H](CCC(=O)O)C(=O)O [glutamate] was tested, and the structural modulation (67 glnA RNA; in-line probing, 100 mM glutamate as the primary buffering agent) was “no structural modulation was observed”, the “binding by the Downstream-peptide glutamine aptamer” value (83 DP RNA) was “reject” and the “binding by the RNA” value [1] was “rejected”.

For O=C(O)CCCC(=O)O [glutaric acid], the “binding by the RNA” value [1] was “rejected”.

In the case of NCCCCN [putrescine], the “binding by the RNA” value [1] is reported as “rejected”.

Cc1ncc(COP(=O)(O)O)c(C=O)c1O [pyridoxal phosphate] was tested, and the “binding by the RNA” value [1] was “rejected”.

O=C(O)CCC(=O)O [succinate] was tested, and the “binding by the RNA” value [1] was “rejected”.

For O=CCCC(=O)O [succinic semialdehyde], the “binding by the RNA” value [1] was “rejected”.

With NCCCC(=O)O [γ-aminobutyric acid] the “binding by the RNA” value [1] was “rejected”.
